In patent US20260007133A1, “HERBICIDAL COMPOSITION COMPRISING AZINE COMPOUNDS” (BASF SE, priority 2022, published 2026) one finds pest or weed control and inhibition data, which are given here for one compound.

Holding throughout (type): in vivo
Assay [1] deals with Alopecurus myosuroides. Briefly: Greenhouse pre-emergence (PRE) herbicidal test on ALOMY. The conditions noted are these: Alopecurus myosuroides, pre-emergence, 480 h, PRE, ALOMY, 20 DAT. The essentials: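 Visual 0–100 rating at 20 days after treatment; 0 = normal growth, 100 = no emergence or complete kill of shoots. Pre-emergent application to seeded pots of loamy sand (~3.0% humus), species-dependent temperature 10-25° C or 20-35° C.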

In assay [2] the test system is Ambrosia artemisiifolia. As to the kind of experiment: Greenhouse pre-emergence (PRE) herbicidal test on AMBEL. The conditions noted are these: Ambrosia artemisiifolia, pre-emergence; for inhibition at 8 g/ha: use rate 8 gai/ha.
In assay [3] the test system is Setaria viridis. As to the kind of experiment: Greenhouse pre-emergence (PRE) herbicidal test on SETVI. To be noted: Setaria viridis, pre-emergence; for inhibition at 2 g/ha: use rate 2 gai/ha. Put shortly:
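Damage was rated visually on a 0 to 100 scale at 20 days after treatment, where 0 meant normal growth and 100 meant no emergence or complete kill of above-ground parts. Compounds were applied in water to freshly sown loamy-sand pots.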

In assay [4] the test system is Echinochloa crus-galli. As to the kind of experiment: Greenhouse post-emergence (POST) herbicidal test on ECHCG. To be noted: Echinochloa crus-galli, post-emergence, 480 h, POST, ECHCG, 20 DAT, read-out: solo application % activity. The essentials: (§1)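 Injury was rated visually on a 0–100 scale, where 0 is normal growth and 100 is complete above-ground kill, 20 days after treatment. Test plants at 3–15 cm height received a post-emergence spray of water-dispersed active from 5% emulsion concentrates. Pots held loamy sand with ~3.0% humus, at 10-25 °C or 20-35 °C depending on species.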

For assay [5], the system named is Euphorbia heterophylla. As to the kind of experiment: Greenhouse post-emergence (POST) herbicidal test on EPHHL. To be noted: Euphorbia heterophylla, post-emergence, 480 h, POST, EPHHL, 20 DAT, read-out: solo application % activity. The essentials:
as §1

Assay [6] deals with Ipomoea hederacea. As to the kind of experiment: Greenhouse post-emergence (POST) herbicidal test on IPOHE. The conditions noted are these: Ipomoea hederacea, post-emergence. The essentials:
as §1

SMILES strings stand for the structures. Where two headings read alike, the source gives them in different places.

Take `COc1c(Cl)c(F)c(F)c(F)c1Nc1nc(N)nc(C(C)(C)F)n1` [Compound I-4, N4-(5-Chloro-2,3,4-trifluoro-6-methoxy-phenyl)-6-(1-fluoro-1-methyl-ethyl)-1,3,5-triazine-2,4-diamine]: the pest or weed control at 2 g/ha in assay [1] (I-4 solo 2 gai/ha, read-out: % activity) was 50%. In addition, the inhibition at 2 g/ha was 5% in assay [1] (use rate 2 gai/ha, read-out: solo application % activity); 0% in assay [2] (480 h, PRE, AMBEL, use rate 2 gai/ha, 20 DAT, read-out: solo application % activity); 5% in assay [3] (480 h, PRE, SETVI, 20 DAT, read-out: solo application % activity); 50% in assay [3] (SETVI PRE, read-out: % activity); 0% in assay [4] (use rate 2 gai/ha); 30% in assay [5] (use rate 2 gai/ha). For the same compound, the inhibition at 2 g/ha in assay [6] (IPOHE POST, use rate 2 gai/ha, read-out: % activity) was determined as 40%. Moreover, the inhibition at 8 g/ha in assay [1] (use rate 8 gai/ha, read-out: solo application % activity) turned out to be 25%; in assay [2] (480 h, PRE, AMBEL, 20 DAT, read-out: solo application % activity) it was 30%; in assay [2] (AMBEL PRE, read-out: % activity), 15%; in assay [3] (480 h, PRE, SETVI, use rate 8 gai/ha, 20 DAT, read-out: solo application % activity), 75%; in assay [4] (use rate 8 gai/ha), 5%; in assay [5] (use rate 8 gai/ha), 35%. The inhibition at 8 g/ha in assay [6] (480 h, POST, IPOHE, use rate 8 gai/ha, 20 DAT, read-out: solo application % activity) was 80%. In addition, the inhibition at 4 g/ha in assay [2] (240 h, PRE, use rate 4 gai/ha, 10 DAT) stood at 10%. Also, the pest or weed control at 8 g/ha in assay [2] (480 h, PRE, AMBEL, I-4 solo 8 gai/ha, 20 DAT) was 35%; in assay [3] (480 h, PRE, SETVI, I-4 solo 8 gai/ha, 20 DAT), 80%.
